According to PMC4703859, “Efficient backbone cyclization of linear peptides by a recombinant asparaginyl endopeptidase” (Nature Communications, 2015):
Each block holds one molecule with its values, some of them ahead of it. Where a SMILES comes first, the peptide text is derived from it. [ ]: non-standard residue; d: D form. The star is where a group is joined. Sta = CC(C)C[C@H](N)[C@@H](O)CC(=O)O; Isovaleryl = CC(C)CC(=O)*

Key:
rOaAEP1b [1] = experiment: Inhibition assay, enzyme activity against wt IQF peptide; assay type: biochemical, Oldenlandia affinis; conditions: 40 min pre-incubation, wt IQF peptide 11 μM, 90 min
Protocol: To investigate the impact of inhibitors on enzyme activity against the wt IQF peptide, rOaAEP1b (4.4 μg ml^–1 total protein) was incubated with the indicated concentration of E64, Ac-YVAD-CHO, pepstatin A and iodoacetamide for 40 min before addition to the substrate (11 μM). Enzyme activity against the wt IQF peptide was then assessed as described above.
Supplementary Figure 3: rOaAEP1b activity against the wt IQF peptide in the presence of protease inhibitors. rOaAEP1b (~4.4 µg ml-1 total protein) was allowed to cleave the wt IQF peptide (11 µM) and fluorescence intensity was recorded every minute for 90 min. The enzyme activity in the presence of inhibitors is reported relative to a no inhibitor control at the 90 min time point. Each data point represents the average of two technical replicates and error bars report the range.
(1 picture or pasted object on this page, not shown here)

rOaAEP1b [2] = experiment: Cyclization assay of linear peptides followed by MALDI MS; assay type: biochemical, Oldenlandia affinis
Protocol: Linear target peptides (280 μM) were incubated with rOaAEP1b (12 μg ml^−1 total protein unless otherwise indicated) in activity buffer. The reaction was allowed to proceed for up to 22 h at room temperature and was analysed by matrix-assisted laser desorption/ionization MS (MALDI MS), RP-HPLC or NMR as appropriate.
To confirm the presence of cyclic product, R1 derivatives processed by rOaAEP1b were subsequently digested with endoGlu-C (25 μg ml^−1) in reaction buffer (50 mM Tris-HCl, 0.5 mM Glu–Glu, pH 8) such that the final dilution of the cyclization mix was 1:4. The reaction was allowed to proceed for 18 h at 37 °C before analysis by MALDI MS.
Cyclization of linear target peptides was monitored by MALDI MS. The reaction mixture (10–20 μl) was desalted using C18 zip tips and eluted in 4 μl 50% acetonitrile, 0.1% trifluoroacetic acid (TFA). A saturated MALDI matrix solution (α–cyano-4-hyroxycinnamic acid) prepared in 95% acetonitrile, 0.1% TFA was diluted 1:22 such that the final matrix solution comprised 90% acetonitrile, 0.1% TFA and 1 mM NH4H2PO4. Eluted samples were mixed 1:4 with the MALDI matrix, spotted onto a MALDI plate and analysed by an Ultraflex III TOF/TOF (Bruker) in positive reflector mode.

[3] = assayed against a small substrate; cited from earlier work
Protocol: The activity of rOaAEP1b against IQF peptides representing wt and mutant versions of the native kB1 C-terminal cleavage site was determined (Table 1; Supplementary Fig. 4a). […] This observation is consistent with the lack of cyclic product generated when the corresponding mutation was introduced in planta. Kinetic parameters (Vmax, Km and kcat) are reported where applicable (Table 1). The tur ...

effect of inhibitor on rOaAEP1b activity (rOaAEP1b [1]; E64 250 μM): not affected
Molecule: CC(C)C[C@H](NC(=O)[C@H]1O[C@@H]1C(=O)O)C(=O)NCCCCN=C(N)N [E64]

Molecule: NC(=O)CI [iodoacetamide]
effect of inhibitor on rOaAEP1b activity (rOaAEP1b [1]; iodoacetamide 1 mM, 4.4 μg ml^-1 total protein): inhibited

effect of inhibitor on rOaAEP1b activity (rOaAEP1b [1]; pepstatin A 10 μM): not affected
Molecule: CC(C)CC(=O)N[C@H](C(=O)N[C@H](C(=O)N[C@@H](CC(C)C)[C@@H](O)CC(=O)N[C@@H](C)C(=O)N[C@@H](CC(C)C)[C@@H](O)CC(=O)O)C(C)C)C(C)C [pepstatin A] (Isovaleryl-VV[Sta]A[Sta]-OH)

effect of inhibitor on rOaAEP1b activity (rOaAEP1b [1]; Ac-YVAD-CHO 500 μM): poor inhibitor
Molecule: Ac-YVAD-CHO

Molecule: VFAEFLPLFSKFGSRMHILK [R1, anti-malarial peptide structurally unrelated to cyclotides]
processing by rOaAEP1b of R1 peptides lacking a full recognition sequence (rOaAEP1b [2]; 22 h, MALDI MS): No processing
cyclization by rOaAEP1b following the addition of N- and C-terminal AEP recognition sequences (rOaAEP1b [2]; 22 h post addition of rOaAEP1b, MALDI MS, cyclic product confirmed by endoGlu-C digestion): efficiently cyclized
cyclization efficiency (rOaAEP1b [2]; rOaAEP1b): ~100%

B1: kB1L31A: kB1 precursor with a Leu31Ala mutation (peptide, UniProt P56254 23-124, looked up, variant L31A)
pro-form: SELSDSHKTTLVNEIAEKMLQRKILDGVEATLVTDVAEKMFLRKMKAEAKTSETADQVFLKQLQLKGLPVCGETCVGGTCNTPGCTCSWPVCTRNGAPSLAA
modifications: pro-form
notes: kB1 precursor with a Leu31Ala mutation
rOaAEP1b-mediated processing of modified kB1 and kB2 precursors over time (rOaAEP1b [2]; 280 μM peptide, pH 5, room temperature, 1, 5 and 22 h, MALDI MS, three technical replicates): cyclized far more slowly than the wt precursor

B2: recombinant human legumain: recombinant human AEP (protein, UniProt Q99538 18-323, looked up)
Legumain: VPIDDPEDGGKHWVVIVAGSNGWYNYRHQADACHAYQIIHRNGIPDEQIVVMMYDDIAYSEDNPTPGIVINRPNGTDVYQGVPKDYTGEDVTPQNFLAVLRGDAEAVKGIGSGKVLKSGPQDHVFIYFTDHGSTGILVFPNEDLHVKDLNETIHYMYKHKMYRKMVFYIEACESGSMMNHLPDNINVYATTAANPRESSYACYYDEKRSTYLGDWYSVNWMEDSDVEDLTKETLHKQYHLVKSHTNTSHVMQYGNKTISTMKVMQFQGMKRKASSPVPLPPVTHLDLTPSPDVPLTIMKRKLMNTN
turnover rate (kcat) [3]: ~8 s⁻¹
